Literature values, collected in patent publication US20130216646A1, “Nanoparticles of Nutritional and Pharmaceutical Compounds” (priority 2011, published 2013).
Like-named read-outs stand apart in the source and are kept apart here.

Legend:
[1] = in vivo
[2] = for Sojourn time: another study
[3] = dogs

## [Ca+2] [calcium]
[1]
  Share of overall calcium absorption accounted for by the small intestine: about 90%
[2]; rat duodenum
  Transit half-time: 6 min
  Sojourn time: 2.2 min
[2]; rat ileum
  Transit half-time: 102 min
  Sojourn time: 121.5 min
[3]
  Share of calcium absorption occurring in the duodenum: 4%
  Share of calcium absorption occurring in the ileum: 80%
  Share of calcium absorption occurring in the jejunum: 16%
Rat intestine, another study
  Share of calcium absorption occurring in the duodenum: 7%
  Share of calcium absorption occurring in the ileum: 65%
  Share of calcium absorption occurring in the jejunum: 17%
Rat small intestine, one study
  Share of calcium absorption occurring in the duodenum: 8%
  Share of calcium absorption occurring in the ileum: 88%
  Share of calcium absorption occurring in the jejunum: 4%
